Results reported in ChEMBL document CHEMBL1131986, “Structure-activity relationships of biphenyl tetrazoles as metallo-beta-lactamase inhibitors” (Bioorg Med Chem Lett, 1999).

Experiments:
Dipeptidase 1 = target: T1, Dipeptidase 1 (Sus scrofa, UniProt P22412); assay: In vitro apparent inhibition constant of porcine renal Dehydropeptidase-1.; conditions: read-out: Ki app
T1 sequence (P22412 whole entry): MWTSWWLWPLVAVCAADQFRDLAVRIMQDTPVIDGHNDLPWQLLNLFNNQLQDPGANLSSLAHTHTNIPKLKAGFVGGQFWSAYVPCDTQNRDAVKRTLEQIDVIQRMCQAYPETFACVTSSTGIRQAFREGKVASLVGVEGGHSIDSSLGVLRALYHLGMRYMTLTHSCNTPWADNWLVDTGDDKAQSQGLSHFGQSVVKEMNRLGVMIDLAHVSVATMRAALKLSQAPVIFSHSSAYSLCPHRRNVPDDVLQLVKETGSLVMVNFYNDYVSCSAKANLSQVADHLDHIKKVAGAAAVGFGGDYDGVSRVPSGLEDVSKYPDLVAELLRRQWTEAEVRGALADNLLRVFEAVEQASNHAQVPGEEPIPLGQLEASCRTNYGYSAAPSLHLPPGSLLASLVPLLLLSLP

[1] = target: Metallo-beta-lactamase type 2 (Bacteroides fragilis, UniProt P25910); assay: Inhibition of metallo-beta-lactamase (MBL) from Bacteroides fragilis.
Metallo-beta-lactamase type 2, sequence (P25910 whole entry): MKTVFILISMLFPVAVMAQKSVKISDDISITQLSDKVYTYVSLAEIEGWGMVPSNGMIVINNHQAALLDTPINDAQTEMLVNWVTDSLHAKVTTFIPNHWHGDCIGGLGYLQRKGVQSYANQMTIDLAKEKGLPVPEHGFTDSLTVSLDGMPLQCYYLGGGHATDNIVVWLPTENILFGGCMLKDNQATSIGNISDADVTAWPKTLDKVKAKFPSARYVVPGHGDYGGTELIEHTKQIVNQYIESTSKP

Beta-lactamase = Beta-lactamase (Pseudomonas aeruginosa, UniProt Q79MP6); assay: Inhibition of metallo-beta-lactamase (MBL) from Pseudomonas aeruginosa mediated by the plasmid-borne IMP-1 enzyme.
Beta-lactamase, sequence (Q79MP6 whole entry): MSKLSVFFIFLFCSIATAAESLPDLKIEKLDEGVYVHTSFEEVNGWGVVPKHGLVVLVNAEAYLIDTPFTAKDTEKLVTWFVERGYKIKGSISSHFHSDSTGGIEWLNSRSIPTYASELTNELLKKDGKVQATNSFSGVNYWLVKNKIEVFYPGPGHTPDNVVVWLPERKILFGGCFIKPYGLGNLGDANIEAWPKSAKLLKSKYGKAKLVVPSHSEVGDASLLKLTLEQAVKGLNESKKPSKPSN

With CCCCc1nn(-c2ccccc2)c(C(=O)OCC)c1Cc1ccc(-c2ccccc2-c2nnn[nH]2)cc1 the Ki (Dipeptidase 1) was 250 µM, the IC50 [1] was 100 µM and the IC50 (Beta-lactamase) was greater than 200 µM.
CCCCc1nn(-c2ccccc2[N+](=O)[O-])c(C(=O)O)c1Cc1ccc(-c2ccccc2-c2nnn[nH]2)cc1 showed a Ki (Dipeptidase 1) of 640 µM, an IC50 [1] of 120 µM and an IC50 (Beta-lactamase) greater than 200 µM.
For CCCCc1nn(-c2ccccc2)c(C(=O)O)c1Cc1ccc(-c2ccccc2-c2nn[nH]n2)cc1, the Ki (Dipeptidase 1) was 590 µM, the IC50 [1] was 200 µM and the IC50 (Beta-lactamase) was greater than 200 µM.
CCCCc1nn(-c2ccccc2Cl)c(C(=O)OCC)c1Cc1ccc(-c2ccccc2-c2nnn[nH]2)cc1 showed a Ki (Dipeptidase 1) of 250 µM, an IC50 [1] of 170 µM and an IC50 (Beta-lactamase) of 200 µM.
Compound CCCCc1nn(-c2ccccc2Cl)c(C(=O)O)c1Cc1ccc(-c2ccccc2-c2nn[nH]n2)cc1 has a Ki (Dipeptidase 1) of 350 µM, an IC50 [1] of 30 µM and an IC50 (Beta-lactamase) greater than 200 µM.
CCCCc1nn(-c2ccccc2-c2ccccc2)c(C(=O)O)c1Cc1ccc(-c2ccccc2-c2nnn[nH]2)cc1 showed a Ki (Dipeptidase 1) of 420 µM, an IC50 [1] of 180 µM and an IC50 (Beta-lactamase) of 65 µM.
In the case of CCCCc1nn(-c2cc(Cl)ccc2Cl)c(C(=O)O)c1Cc1ccc(-c2ccccc2-c2nnn[nH]2)cc1, the Ki (Dipeptidase 1) is reported as 380 µM, the IC50 [1] is reported as 50 µM and the IC50 (Beta-lactamase) is reported as greater than 200 µM.
For CCCCc1nn(-c2cccc(Cl)c2)c(C(=O)O)c1Cc1ccc(-c2ccccc2-c2nn[nH]n2)cc1, the Ki (Dipeptidase 1) was 425 µM, the IC50 [1] was 190 µM and the IC50 (Beta-lactamase) was greater than 200 µM.
For CCCCc1nn(-c2ccc(Cl)cc2)c(C(=O)O)c1Cc1ccc(-c2ccccc2-c2nn[nH]n2)cc1, the Ki (Dipeptidase 1) was 430 µM, the IC50 [1] was 230 µM and the IC50 (Beta-lactamase) was greater than 200 µM.
With CCCCc1nn(-c2c(Cl)cccc2Cl)c(C(=O)O)c1Cc1ccc(-c2ccccc2-c2nnn[nH]2)cc1 the Ki (Dipeptidase 1) was 500 µM, the IC50 [1] was 100 µM and the IC50 (Beta-lactamase) was greater than 200 µM.
Work on CCCCc1nn(-c2ccc(Cl)cc2)c(C(=O)OCC)c1Cc1ccc(-c2ccccc2-c2nn[nH]n2)cc1 yielded a Ki (Dipeptidase 1) of 380 µM, an IC50 [1] of 290 µM and an IC50 (Beta-lactamase) of 70 µM.
In the case of CCCCc1nn(-c2ccccc2[N+](=O)[O-])c(C(=O)OCC)c1Cc1ccc(-c2ccccc2-c2nnn[nH]2)cc1, the IC50 [1] is reported as 18 µM and the IC50 (Beta-lactamase) is reported as greater than 200 µM.
Compound CCCCc1nn(-c2ccc(Cl)cc2Cl)c(C(=O)OCC)c1Cc1ccc(-c2ccccc2-c2nnn[nH]2)cc1 has a Ki (Dipeptidase 1) of 480 µM, an IC50 [1] of 100 µM and an IC50 (Beta-lactamase) of 66 µM.
In the case of CCCCc1nn(-c2cccc(Cl)c2Cl)c(C(=O)OCC)c1Cc1ccc(-c2ccccc2-c2nnn[nH]2)cc1, the Ki (Dipeptidase 1) is reported as 170 µM, the IC50 [1] is reported as 100 µM and the IC50 (Beta-lactamase) is reported as 175 µM.
In the case of CCCCc1nn(-c2cccc(Cl)c2)c(C(=O)OCC)c1Cc1ccc(-c2ccccc2-c2nn[nH]n2)cc1, the Ki (Dipeptidase 1) is reported as 450 µM, the IC50 [1] is reported as 170 µM and the IC50 (Beta-lactamase) is reported as 76 µM.
CCCCc1nn(-c2c(Cl)cc(Cl)cc2Cl)c(C(=O)O)c1Cc1ccc(-c2ccccc2-c2nnn[nH]2)cc1 showed a Ki (Dipeptidase 1) of 800 µM, an IC50 [1] of 33 µM and an IC50 (Beta-lactamase) greater than 200 µM.
In the case of CCCCc1nn(-c2ccccc2-c2ccccc2)c(C(=O)OCC)c1Cc1ccc(-c2ccccc2-c2nn[nH]n2)cc1, the IC50 [1] is reported as greater than 200 µM and the IC50 (Beta-lactamase) is reported as 150 µM.
In the case of CCCCc1nn(-c2ccccc2C)c(C(=O)O)c1Cc1ccc(-c2ccccc2-c2nn[nH]n2)cc1, the Ki (Dipeptidase 1) is reported as 470 µM, the IC50 [1] is reported as 80 µM and the IC50 (Beta-lactamase) is reported as greater than 200 µM.
CCCCc1nn(-c2cccc(Cl)c2Cl)c(C(=O)O)c1Cc1ccc(-c2ccccc2-c2nnn[nH]2)cc1 was tested, and the Ki (Dipeptidase 1) was 310 µM, the IC50 [1] was 37 µM and the IC50 (Beta-lactamase) was greater than 200 µM.
For CCCCc1nn(-c2ccccc2C(F)(F)F)c(C(=O)O)c1Cc1ccc(-c2ccccc2-c2nnn[nH]2)cc1, the Ki (Dipeptidase 1) was 380 µM, the IC50 [1] was 40 µM and the IC50 (Beta-lactamase) was greater than 200 µM.
For CCCCc1nn(-c2c(Cl)cc(Cl)cc2Cl)c(C(=O)OCC)c1Cc1ccc(-c2ccccc2-c2nn[nH]n2)cc1, the Ki (Dipeptidase 1) was 450 µM, the IC50 [1] was 80 µM and the IC50 (Beta-lactamase) was greater than 200 µM.
CCCCc1nn(-c2ccccc2C(F)(F)F)c(C(=O)OCC)c1Cc1ccc(-c2ccccc2-c2nnn[nH]2)cc1 showed an IC50 [1] of 22 µM and an IC50 (Beta-lactamase) greater than 200 µM.
Compound CCCCc1nn(-c2cc(Cl)ccc2Cl)c(C(=O)OCC)c1Cc1ccc(-c2ccccc2-c2nn[nH]n2)cc1 has a Ki (Dipeptidase 1) of 80 µM, an IC50 [1] of 100 µM and an IC50 (Beta-lactamase) of 60 µM.
For CCCCc1nn(-c2ccccc2C)c(C(=O)OCC)c1Cc1ccc(-c2ccccc2-c2nn[nH]n2)cc1, the IC50 [1] was 70 µM and the IC50 (Beta-lactamase) was greater than 200 µM.
CCCCc1nn(-c2ccc(Cl)cc2Cl)c(C(=O)O)c1Cc1ccc(-c2ccccc2-c2nn[nH]n2)cc1 showed a Ki (Dipeptidase 1) of 400 µM, an IC50 [1] of 80 µM and an IC50 (Beta-lactamase) greater than 200 µM.
